Laboratory results from the supplement of paper PMC13380429.

Tests used:
[1] = test system: A549-ACE2 infected with SARS-CoV-2; experiment: cell count relative to DMSO; higher = less toxic; conditions: 24 h
A549-ACE2 [2] = experiment: drug-induced phospholipidosis relative to tamoxifen; higher = more phospholipidosis
A549-ACE2 [3] = experiment: phospholipidosis EC50; higher = less potent phospholipidosis inducer
Vero E6 [4] = experiment: drug sensitivity score (DSS) for viability; higher = more toxic; extreme values may be limits of the assay; conditions: 72 h
HepG2 [5] = experiment: as above; conditions: 72 h
Calu-3 [6] = experiment: as above; conditions: 72 h
Caco-2 [7] = experiment: as above; conditions: 72 h
U2OS [8] = experiment: as above; conditions: 72 h
Vero E6 [9] = experiment: cell viability relative to DMSO; higher = less toxic; conditions: 72 h
HepG2 [10] = experiment: as above; conditions: 72 h
Calu-3 [11] = experiment: as above; conditions: 72 h
Caco-2 [12] = experiment: as above; conditions: 72 h
U2OS [13] = experiment: as above; conditions: 72 h
[14] = test system: A549-ACE2 infected with SARS-CoV-2; experiment: morphology score (similarity to uninfected cells); higher = more like uninfected cells; conditions: 24 h
Vero E6 [15] = experiment: relative viability EC50 (midpoint between 100% and the lowest measured viability); higher = less toxic; conditions: 72 h
Calu-3 [16] = experiment: as above; conditions: 72 h
U2OS [17] = experiment: as above; conditions: 72 h
[18] = test system: A549-ACE2 infected with SARS-CoV-2; experiment: SARS-CoV-2 infection rate relative to DMSO; higher = more infection; conditions: 24 h
HepG2 [19] = experiment: relative viability EC50 (midpoint between 100% and the lowest measured viability); higher = less toxic; conditions: 72 h
Caco-2 [20] = experiment: as above; conditions: 72 h

C[C@@H](NCCCc1cccc(C(F)(F)F)c1)c1cccc2ccccc12 [cinacalcet]
Conditions	SARS-CoV-2 infection rate [%]	cell count [%]	cell viability [%]	morphology score	phospholipidosis EC50 [µM]
A549-ACE2 [3], 24 h	–	–	–	–	2.77
A549-ACE2 [3], 48 h	–	–	–	–	4.97
A549-ACE2 [3], 72 h	–	–	–	–	5.11
Caco-2 [12], 1 nM	–	–	99.8	–	–
Caco-2 [12], 10 nM	–	–	96.4	–	–
Caco-2 [12], 100 nM	–	–	100	–	–
Caco-2 [12], 1000 nM	–	–	89.1	–	–
Caco-2 [12], 10000 nM	–	–	68.4	–	–
Calu-3 [11], 1 nM	–	–	109	–	–
Calu-3 [11], 10 nM	–	–	109	–	–
Calu-3 [11], 100 nM	–	–	101	–	–
Calu-3 [11], 1000 nM	–	–	98.6	–	–
Calu-3 [11], 10000 nM	–	–	7.3	–	–
HepG2 [10], 1 nM	–	–	98	–	–
HepG2 [10], 10 nM	–	–	102	–	–
HepG2 [10], 100 nM	–	–	87.9	–	–
HepG2 [10], 1000 nM	–	–	96.4	–	–
HepG2 [10], 10000 nM	–	–	66.3	–	–
U2OS [13], 1 nM	–	–	106	–	–
U2OS [13], 10 nM	–	–	95.8	–	–
U2OS [13], 100 nM	–	–	103	–	–
U2OS [13], 1000 nM	–	–	99.6	–	–
U2OS [13], 10000 nM	–	–	89.4	–	–
Vero E6 [9], 1 nM	–	–	102	–	–
Vero E6 [9], 10 nM	–	–	106	–	–
Vero E6 [9], 100 nM	–	–	104	–	–
Vero E6 [9], 1000 nM	–	–	101	–	–
Vero E6 [9], 10000 nM	–	–	82.2	–	–
[1], 0.3 µM	–	96	–	–	–
[1], 3 µM	–	103	–	–	–
[1], 10 µM	–	87	–	–	–
[14], 0.3 µM	–	–	–	0.09	–
[14], 3 µM	–	–	–	0.67	–
[14], 10 µM	–	–	–	0.55	–
[18], 0.3 µM	93	–	–	–	–
[18], 3 µM	59	–	–	–	–
[18], 10 µM	54	–	–	–	–

drug-induced phospholipidosis [%], A549-ACE2 [2]
Conditions	0.3 µM	0.833333 µM	3.33333 µM	6.66667 µM	10 µM	30 µM
24 h	3.21	8.87	65.6	89.9	102	53.7
48 h	2.84	6.54	45.1	87.9	107	–
72 h	4.18	6.97	37.3	82.3	102	–

Conditions	drug sensitivity score	relative viability EC50 [µM]
Caco-2 [7]	2.9	–
Calu-3 [6]	5.3	–
Calu-3 [16]	–	3.06
HepG2 [5]	2.2	–
U2OS [8]	0	–
U2OS [17]	–	> 10
Vero E6 [4]	0.4	–
Vero E6 [15]	–	> 10

CNc1cc(OC)c(C(=O)NC2CCN(Cc3ccccc3)C2C)cc1Cl (centres undefined) [nemonapride]
Conditions	SARS-CoV-2 infection rate, [18] [%]	cell count, [1] [%]	cell viability, Caco-2 [12] [%]	cell viability, Calu-3 [11] [%]	cell viability, HepG2 [10] [%]	cell viability, U2OS [13] [%]	cell viability, Vero E6 [9] [%]	morphology score, [14]
1 nM	–	–	101	92.2	96	90.7	99.1	–
10 nM	–	–	104	98	96.1	99.4	91.9	–
100 nM	–	–	104	92.6	98.1	94.5	99.5	–
0.3 µM	100	99	–	–	–	–	–	-0.15
1000 nM	–	–	108	105	94.2	98.6	94.7	–
3 µM	61	111	–	–	–	–	–	0.69
10 µM	49	123	–	–	–	–	–	0.82
10000 nM	–	–	90.5	87.5	83.4	93.8	100	–
30 µM	16	122	–	–	–	–	–	0.86

drug-induced phospholipidosis [%], A549-ACE2 [2]
Conditions	0.3 µM	0.833333 µM	3.33333 µM	6.66667 µM	10 µM	30 µM
24 h	1.28	6.8	10.9	12.3	18.5	51
48 h	3.09	4.55	12.9	15.7	16.3	43.9
72 h	5.92	4.8	14.4	19.3	24.2	53.2

Conditions	drug sensitivity score	relative viability EC50 [µM]
Caco-2 [7]	0	–
Caco-2 [20]	–	> 10
Calu-3 [6]	0	–
Calu-3 [16]	–	> 10
HepG2 [5]	0.6	–
HepG2 [19]	–	> 10
U2OS [8]	0	–
U2OS [17]	–	> 10
Vero E6 [4]	0	–
Vero E6 [15]	–	> 10

CCSc1ccc2c(c1)N(CCCN1CCN(C)CC1)c1ccccc1S2 [thiethylperazine]
Conditions	SARS-CoV-2 infection rate [%]	cell count [%]	cell viability [%]	morphology score	phospholipidosis EC50 [µM]
A549-ACE2 [3], 24 h	–	–	–	–	3.52
A549-ACE2 [3], 48 h	–	–	–	–	5.17
A549-ACE2 [3], 72 h	–	–	–	–	6.75
Caco-2 [12], 1 nM	–	–	101	–	–
Caco-2 [12], 10 nM	–	–	95.4	–	–
Caco-2 [12], 100 nM	–	–	91.7	–	–
Caco-2 [12], 1000 nM	–	–	98.4	–	–
Caco-2 [12], 10000 nM	–	–	69.6	–	–
Calu-3 [11], 1 nM	–	–	101	–	–
Calu-3 [11], 10 nM	–	–	89.2	–	–
Calu-3 [11], 100 nM	–	–	95.9	–	–
Calu-3 [11], 1000 nM	–	–	110	–	–
Calu-3 [11], 10000 nM	–	–	59.9	–	–
HepG2 [10], 1 nM	–	–	98	–	–
HepG2 [10], 10 nM	–	–	100	–	–
HepG2 [10], 100 nM	–	–	101	–	–
HepG2 [10], 1000 nM	–	–	89.5	–	–
HepG2 [10], 10000 nM	–	–	55.6	–	–
U2OS [13], 1 nM	–	–	103	–	–
U2OS [13], 10 nM	–	–	102	–	–
U2OS [13], 100 nM	–	–	106	–	–
U2OS [13], 1000 nM	–	–	106	–	–
U2OS [13], 10000 nM	–	–	91.6	–	–
Vero E6 [9], 1 nM	–	–	97.7	–	–
Vero E6 [9], 10 nM	–	–	95.5	–	–
Vero E6 [9], 100 nM	–	–	95	–	–
Vero E6 [9], 1000 nM	–	–	102	–	–
Vero E6 [9], 10000 nM	–	–	83.2	–	–
[1], 0.3 µM	–	98	–	–	–
[1], 3 µM	–	116	–	–	–
[1], 10 µM	–	122	–	–	–
[1], 30 µM	–	17	–	–	–
[14], 0.3 µM	–	–	–	0.15	–
[14], 3 µM	–	–	–	0.81	–
[14], 10 µM	–	–	–	0.8	–
[14], 30 µM	–	–	–	-0.01	–
[18], 0.3 µM	99	–	–	–	–
[18], 3 µM	40	–	–	–	–
[18], 10 µM	12	–	–	–	–
[18], 30 µM	61	–	–	–	–

drug-induced phospholipidosis [%], A549-ACE2 [2]
Conditions	0.3 µM	0.833333 µM	3.33333 µM	6.66667 µM	10 µM	30 µM
24 h	2.75	4.77	26.3	67.4	80	53.2
48 h	3.55	4.25	19.4	77.1	97	–
72 h	4.26	5.76	19.6	70	104	–

Conditions	drug sensitivity score	relative viability EC50 [µM]
Caco-2 [7]	1.6	–
Calu-3 [6]	1.5	–
HepG2 [5]	3.9	–
U2OS [8]	0	–
U2OS [17]	–	> 10
Vero E6 [4]	0.3	–
Vero E6 [15]	–	> 10
